Results as given in patent US20080161289A1, “Fused Thiazole Derivatives Having Affinity for the Histamine H3 Receptor” (Glaxo Group Limited, priority 2005, published 2008).

target: T1, histamine H3 receptors (Homo sapiens, UniProt Q9Y5N1); assay: Histamine H3 functional antagonist assay ([35S]-GTPγS SPA on membranes from H3 cells); assay type: biochemical; details: hydrochloride salts tested; H3 functional antagonist assay using membrane prepared from cultured H3 cells; averages of a number of experiments; read-out: functional pKi (fpKi) (converted)
T1 construct: expressed in transfected cells; host or cells: CHO K1 cells carrying pSwitch, transfected with pGeneH3, induced with mifepristone; clone 3H3; membrane preparation
Excerpt: A membrane preparation containing histamine H3 receptors may be prepared in accordance with the following procedures:
(i) Generation of Histamine H3 Cell Line
DNA encoding the human histamine H3 gene (Huvar, A. et al. (1999) Mol. Pharmacol. 55(6), 1101-1107) was cloned into a holding vector, pCDNA3.1 TOPO (InVitrogen) and its cDNA was isolated from this vector by restriction digestion of plasmid DNA with the enzymes BamHI and Not-1 and ligated into the inducible expression vector pGene (InVitrogen) digested with the same enzymes. The GeneSwitch™ system (a system where in transgene expression is switched off in the absence of an inducer and switched on in the presence of an inducer) was performed as described in U.S. Pat. Nos. 5,364,791; 5,874,534; and 5,935,934. Ligated DNA was transformed into competent DH5α E. coli host bacterial cells and plated onto Luria Broth (LB) agar containing Zeocin™ (an antibiotic which allows the selection of cells expressing the sh ble gene which is present on pGene and pSwitch) at 50 μg ml^−1. Colonies containing the re-ligated plasmid were identified by restriction analysis. DNA for transfection into mammalian cells was prepared from 250 ml cultures of the host bacterium containing the pGeneH3 plasmid and isolated using a DNA preparation kit (Qiagen Midi-Prep) as per manufacturers guidelines (Qiagen).
CHO K1 cells previously transfected with the pSwitch regulatory plasmid (InVitrogen) were seeded at 2×10e6 cells per T75 flask in Complete Medium, containing Hams F12 (GIBCOBRL, Life Technologies) medium supplemented with 10% v/v dialysed foetal bovine serum, L-glutamine, and hygromycin (100 μg ml^−1), 24 hours prior to use. Plasmid DNA was transfected into the cells using Lipofectamine plus according to the manufacturers guidelines (InVitrogen). 48 hours post transfection cells were placed into complete medium supplemented with 500 μg ml^−1 Zeocin™.
10-14 days post selection 10 nM Mifepristone (InVitrogen), was added to the culture medium to induce the expression of the receptor. 18 hours post induction cells were detached from the flask using ethylenediamine tetra-acetic acid (EDTA; 1:5000; InVitrogen), following several washes with phosphate buffered saline pH 7.4 and resuspended in Sorting Medium containing Minimum Essential Medium (MEM), without phenol red, and supplemented with Earles salts and 3% Foetal Clone II (Hyclone). Approximately 1×10e7 cells were examined for receptor expression by staining with a rabbit polyclonal antibody, 4a, raised against the N-terminal domain of the histamine H3 receptor, incubated on ice for 60 minutes, followed by two washes in sorting medium. Receptor bound antibody was detected by incubation of the cells for 60 minutes on ice with a goat anti rabbit antibody, conjugated with Alexa 488 fluorescence marker (Molecular Probes). Following two further washes with Sorting Medium, cells were filtered through a 50 μm Filcon™ (BD Biosciences) and then analysed on a FACS Vantage SE Flow Cytometer fitted with an Automatic Cell Deposition Unit. Control cells were non-induced cells treated in a similar manner. Positively stained cells were sorted as single cells into 96-well plates, containing Complete Medium containing 500 μg ml^−1 Zeocin™ and allowed to expand before reanalysis for receptor expression via antibody and ligand binding studies. One clone, 3H3, was selected for membrane preparation.
(ii) Membrane Preparation from Cultured Cells
All steps of the protocol are carried out at 4° C. and with pre-cooled reagents. The cell pellet is resuspended in 10 volumes of homogenisation buffer (50 mM N-2-hydroxyethylpiperazine-N′-2-ethanesulfonic acid (HEPES), 1 mM ethylenediamine tetra-acetic acid (EDTA), pH 7.4 with KOH, supplemented with 10e-6M leupeptin (acetyl-leucyl-leucyl-arginal; Sigma L2884), 25 μg/ml bacitracin (Sigma B0125), 1 mM phenylmethylsulfonyl fluoride (PMSF) and 2×10e-6M pepstain A (Sigma)). […]

T1 sequence (Q9Y5N1 whole entry): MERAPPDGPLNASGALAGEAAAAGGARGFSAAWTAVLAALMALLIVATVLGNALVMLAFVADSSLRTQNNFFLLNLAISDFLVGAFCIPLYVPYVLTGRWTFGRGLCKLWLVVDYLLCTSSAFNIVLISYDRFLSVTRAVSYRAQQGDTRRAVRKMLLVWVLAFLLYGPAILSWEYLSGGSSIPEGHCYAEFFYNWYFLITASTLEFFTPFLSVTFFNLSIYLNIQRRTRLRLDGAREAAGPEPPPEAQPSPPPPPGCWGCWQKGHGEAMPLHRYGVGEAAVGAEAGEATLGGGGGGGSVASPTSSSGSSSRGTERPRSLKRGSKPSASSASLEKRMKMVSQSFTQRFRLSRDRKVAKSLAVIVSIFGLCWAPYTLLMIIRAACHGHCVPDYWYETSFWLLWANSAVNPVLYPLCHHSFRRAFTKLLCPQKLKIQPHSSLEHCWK

Question: How did the Ki turn out when `N#Cc1ccc(N2CCC(c3nc4c(s3)CCN(C3CCC3)CC4)C2)cn1` (racemic) [Example E35, (±)-5-[3-(6-Cyclobutyl-5,6,7,8-tetrahydro-4H-[1,3]thiazolo[4,5-d]azepin-2-yl)-1-pyrrolidinyl]-2-pyridinecarbonitrile] was run?
Answer: Its Ki is less than 1.26 nM.

Question: With `Cc1ccc(N2CCC(c3nc4c(s3)CCN(C3CCC3)CC4)C2)cn1` (racemic) [Example E38, (±)-6-Cyclobutyl-2-[1-(6-methyl-3-pyridinyl)-3-pyrrolidinyl]-5,6,7,8-tetrahydro-4H-[1,3]thiazolo[4,5-d]azepine] as the compound, how does the Ki read?
Answer: The Ki was less than 1.26 nM.

Question: For `Cc1cccc(N2CCC(c3nc4c(s3)CCN(C3CCC3)CC4)C2)n1` (racemic) [Example E114, (±)-6-Cyclobutyl-2-[1-(6-methyl-2-pyridinyl)-3-pyrrolidinyl]-5,6,7,8-tetrahydro-4H-[1,3]thiazolo[4,5-d]azepine], which Ki is on record?
Answer: Its Ki is less than 0.316 nM.

Question: How did the Ki turn out when `N#Cc1ccc(N2CCC(c3nc4c(s3)CCN(C3CCC3)CC4)C2)cn1` (single isomer, unassigned; (+)) [Example E37, (+)-5-[3-(6-Cyclobutyl-5,6,7,8-tetrahydro-4H-[1,3]thiazolo[4,5-d]azepin-2-yl)-1-pyrrolidinyl]-2-pyridinecarbonitrile] was run?
Answer: Its Ki is less than 1.26 nM.

Question: How did the Ki turn out when `N#Cc1ccc(N2CCC(c3nc4c(s3)CCN(C3CCC3)CC4)C2)cn1` (single isomer, unassigned; (-)) [Example E36, (−)-5-[3-(6-Cyclobutyl-5,6,7,8-tetrahydro-4H-[1,3]thiazolo[4,5-d]azepin-2-yl)-1-pyrrolidinyl]-2-pyridinecarbonitrile] was run?
Answer: The Ki was less than 0.316 nM.

Question: `FC(F)(F)c1ccc(-c2nc3c(s2)CCN(C2CCC2)CC3)cc1` [Example E1, 6-Cyclobutyl-2-[4-(trifluoromethyl)phenyl]-5,6,7,8-tetrahydro-4H-[1,3]thiazolo[4,5-d]azepine] was tested. Which Ki did it give?
Answer: The Ki was less than 31.6 nM.

Question: Which Ki does the source give for `O=C1CCCN1c1ccc(-c2nc3c(s2)CCN(C2CCC2)CC3)cc1` [Example E3, 1-[4-(6-cyclobutyl-5,6,7,8-tetrahydro-4H-[1,3]thiazolo[4,5-d]azepin-2-yl)phenyl]-2-pyrrolidinone] here?
Answer: The Ki was less than 0.316 nM.

Question: For `c1cc(-c2nc3c(s2)CCN(C2CCC2)CC3)ccc1-c1csnn1` [Example E5, 6-Cyclobutyl-2-[4-(1,2,3-thiadiazol-4-yl)phenyl]-5,6,7,8-tetrahydro-4H-[1,3]thiazolo[4,5-d]azepine], which Ki is on record?
Answer: Its Ki is less than 1.26 nM.

Question: `Cc1ccc(C(=O)N2CCC(c3nc4c(s3)CCN(C3CCC3)CC4)CC2)cn1` [Example E8, 6-Cyclobutyl-2-{1-[(6-methyl-3-pyridinyl)carbonyl]-4-piperidinyl}-5,6,7,8-tetrahydro-4H-[1,3]thiazolo[4,5-d]azepine] was tested. Which Ki did it give?
Answer: Its Ki is less than 1.26 nM.

Question: `O=C(c1ccc(C(F)(F)F)nc1)N1CCC(c2nc3c(s2)CCN(C2CCC2)CC3)CC1` [Example E10, 6-Cyclobutyl-2-(1-{[6-(trifluoromethyl)-3-pyridinyl]carbonyl}-4-piperidinyl)-5,6,7,8-tetrahydro-4H-[1,3]thiazolo[4,5-d]azepine] was tested. Which Ki did it give?
Answer: The Ki was less than 31.6 nM.

Question: Which Ki does the source give for `Cc1cccc(C(=O)N2CCC(c3nc4c(s3)CCN(C3CCC3)CC4)CC2)n1` [Example E11, 6-Cyclobutyl-2-{1-[(6-methyl-2-pyridinyl)carbonyl]-4-piperidinyl}-5,6,7,8-tetrahydro-4H-[1,3]thiazolo[4,5-d]azepine] here?
Answer: Its Ki is less than 0.316 nM.

Question: How did the Ki turn out when `Cc1cnc(C(=O)N2CCC(c3nc4c(s3)CCN(C3CCC3)CC4)CC2)cn1` [Example E12, 6-Cyclobutyl-2-{1-[(5-methyl-2-pyrazinyl)carbonyl]-4-piperidinyl}-5,6,7,8-tetrahydro-4H-[1,3]thiazolo[4,5-d]azepine] was run?
Answer: The Ki was less than 1.26 nM.

Question: Which Ki does the source give for `Cc1cncc(C(=O)N2CCC(c3nc4c(s3)CCN(C3CCC3)CC4)CC2)c1` [Example E13, 6-Cyclobutyl-2-{1-[(5-methyl-3-pyridinyl)carbonyl]-4-piperidinyl}-5,6,7,8-tetrahydro-4H-[1,3]thiazolo[4,5-d]azepine] here?
Answer: The Ki was less than 0.316 nM.

Question: How did the Ki turn out when `Cc1ccc(C(=O)N2CCC(c3nc4c(s3)CCN(C3CCC3)CC4)CC2)cc1` [Example E14, 6-Cyclobutyl-2-{1-[(4-methylphenyl)carbonyl]-4-piperidinyl}-5,6,7,8-tetrahydro-4H-[1,3]thiazolo[4,5-d]azepine] was run?
Answer: Its Ki is less than 1.26 nM.

Question: How did the Ki turn out when `Cc1cc(C(=O)N2CCC(c3nc4c(s3)CCN(C3CCC3)CC4)CC2)no1` [Example E15, 6-Cyclobutyl-2-{1-[(5-methyl-3-isoxazolyl)carbonyl]-4-piperidinyl}-5,6,7,8-tetrahydro-4H-[1,3]thiazolo[4,5-d]azepine] was run?
Answer: The Ki was less than 1.26 nM.

Question: Which Ki does the source give for `O=C(c1csnn1)N1CCC(c2nc3c(s2)CCN(C2CCC2)CC3)CC1` [Example E16, 6-Cyclobutyl-2-[1-(1,2,3-thiadiazol-4-ylcarbonyl)-4-piperidinyl]-5,6,7,8-tetrahydro-4H-[1,3]thiazolo[4,5-d]azepine] here?
Answer: The Ki was less than 1.26 nM.

Question: With `Cn1ccc(C(=O)N2CCC(c3nc4c(s3)CCN(C3CCC3)CC4)CC2)n1` [Example E17, 6-Cyclobutyl-2-{1-[(1-methyl-1H-pyrazol-3-yl)carbonyl]-4-piperidinyl}-5,6,7,8-tetrahydro-4H-[1,3]thiazolo[4,5-d]azepine] as the compound, how does the Ki read?
Answer: The Ki was less than 1.26 nM.

Question: With `Cc1cc(C(=O)N2CCC(c3nc4c(s3)CCN(C3CCC3)CC4)CC2)on1` [Example E18, 6-Cyclobutyl-2-{1-[(3-methyl-5-isoxazolyl)carbonyl]-4-piperidinyl}-5,6,7,8-tetrahydro-4H-[1,3]thiazolo[4,5-d]azepine] as the compound, how does the Ki read?
Answer: The Ki was less than 1.26 nM.

Question: Which Ki does the source give for `Cc1ccc(N2CCC(c3nc4c(s3)CCN(C3CCC3)CC4)CC2)cn1` [Example E19, 6-Cyclobutyl-2-[1-(6-methyl-3-pyridinyl)-4-piperidinyl]-5,6,7,8-tetrahydro-4H-[1,3]thiazolo[4,5-d]azepine] here?
Answer: Its Ki is less than 1.26 nM.

Question: `N#Cc1ccc(N2CCC(c3nc4c(s3)CCN(C3CCC3)CC4)CC2)cn1` [Example E20, 5-[4-(6-Cyclobutyl-5,6,7,8-tetrahydro-4H-[1,3]thiazolo[4,5-d]azepin-2-yl)-1-piperidinyl]-2-pyridinecarbonitrile] was tested. Which Ki did it give?
Answer: The Ki was less than 0.316 nM.

Question: `NC(=O)c1ccc(N2CCC(c3nc4c(s3)CCN(C3CCC3)CC4)CC2)cn1` [Example E22, 5-[4-(6-Cyclobutyl-5,6,7,8-tetrahydro-4H-[1,3]thiazolo[4,5-d]azepin-2-yl)-1-piperidinyl]-2-pyridinecarboxamide] was tested. Which Ki did it give?
Answer: The Ki was less than 0.316 nM.

Question: `CN(C)C(=O)c1ccc(N2CCC(c3nc4c(s3)CCN(C3CCC3)CC4)CC2)cn1` [Example E24, 5-[4-(6-Cyclobutyl-5,6,7,8-tetrahydro-4H-[1,3]thiazolo[4,5-d]azepin-2-yl)-1-piperidinyl]-N,N-dimethyl-2-pyridinecarboxamide] was tested. Which Ki did it give?
Answer: Its Ki is less than 1.26 nM.

Question: For `Cc1ncccc1C(=O)N1CCC(c2nc3c(s2)CCN(C2CCC2)CC3)CC1` [Example E25, 6-Cyclobutyl-2-{1-[(2-methyl-3-pyridinyl)carbonyl]-4-piperidinyl}-5,6,7,8-tetrahydro-4H-[1,3]thiazolo[4,5-d]azepine], which Ki is on record?
Answer: The Ki was less than 1.26 nM.

Question: How did the Ki turn out when `CN1CCN(c2ccc(-c3nc4c(s3)CCN(C3CCC3)CC4)cc2)C1=O` [Example E26, 1-[4-(6-Cyclobutyl-5,6,7,8-tetrahydro-4H-[1,3]thiazolo[4,5-d]azepin-2-yl)phenyl]-3-methyl-2-imidazolidinone] was run?
Answer: Its Ki is less than 0.316 nM.

Question: For `O=C1NCCN1c1ccc(-c2nc3c(s2)CCN(C2CCC2)CC3)cc1` [Example E27, 1-[4-(6-Cyclobutyl-5,6,7,8-tetrahydro-4H-[1,3]thiazolo[4,5-d]azepin-2-yl)phenyl]-2-imidazolidinone], which Ki is on record?
Answer: Its Ki is less than 1.26 nM.

Question: With `CN1CCN(c2ccc(-c3nc4c(s3)CCN(C3CCCC3)CC4)cc2)C1=O` [Example E28, 1-[4-(6-Cyclopentyl-5,6,7,8-tetrahydro-4H-[1,3]thiazolo[4,5-d]azepin-2-yl)phenyl]-3-methyl-2-imidazolidinone] as the compound, how does the Ki read?
Answer: Its Ki is less than 0.316 nM.
